The text below walks through data of ChEMBL document CHEMBL1141430, “Alkaloids with human delta-opioid receptor binding affinity from the Australian rainforest tree Peripentadenia mearsii” (J Nat Prod, 2007).

Assay [1] deals with T1, Delta-type opioid receptor (Homo sapiens, UniProt P41143). Kind of assay: Displacement of [125I]deltorphin 2 from human recombinant delta opioid receptor expressed in HEK cells at 100 uM. The class given is cell-based. Conditions: HEK293.
In assay [2] the target is T1, Delta-type opioid receptor. Nature of the assay: biochemical.

Each structure is given as a SMILES string. pIC50: −log10 of the molar value. Calls of active or inactive are those of the source. The calls are words filed in the database; no cut-off is given here.

T1 sequence (P41143 whole entry): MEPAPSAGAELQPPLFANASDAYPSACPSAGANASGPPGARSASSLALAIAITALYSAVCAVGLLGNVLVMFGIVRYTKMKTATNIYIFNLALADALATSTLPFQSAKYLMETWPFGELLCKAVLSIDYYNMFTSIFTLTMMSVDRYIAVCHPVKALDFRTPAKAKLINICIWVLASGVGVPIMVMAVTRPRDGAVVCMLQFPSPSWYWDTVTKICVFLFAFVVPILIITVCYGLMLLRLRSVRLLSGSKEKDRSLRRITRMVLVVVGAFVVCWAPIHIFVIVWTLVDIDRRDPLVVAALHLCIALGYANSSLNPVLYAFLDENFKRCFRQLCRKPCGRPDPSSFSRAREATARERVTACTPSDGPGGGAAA

On to `CCCCCC(=O)NCCC[N+]12CCC[C@@H]1CC1=C(C(=O)CC(C)O1)[C@H]2C` (stereo partly drawn), for which, in assay [1], the outcome was inactive.

For the compound `CCCCCC(=O)NCCCN1CCCC1CC(=O)c1c(C)cccc1O` (stereo not drawn) [PERIPENTADENINE], in assay [2], the pIC50 is 4.94.

For the compound `CCCCCC(=O)NCCCN1CCC[C@H]1CC(=O)O` [PERIPENTONINE C], the negative logarithm of the IC50 (pIC50) in assay [2] was 4.51.

Usually pIC50 stands for the negative decadic logarithm of the IC50, by convention in mol/L. A lower pIC50 goes with a large IC50.
